{"source": "paper PMC9374667", "about": "(Communications Biology, 2022)", "key": {"db/db mice [1]": {"test_system": "db/db mice", "assay": "Weekly fasting glucose levels of db/db mice", "format": "in vivo", "details": "for Weekly fasting glucose levels of db/db mice (Figure 5a): BJ 150mg/kg, individual mice 1-10, in mmol/L; for Fasting blood glucose level at the end of the treatment: mouse, in vivo", "description": "The lean wild type control and the db/db control mice were given equal vehicle volume (0.5% CMC-Na solution). All mice were monitored for food intake, body weight, and fasting blood glucose during the 35-day trial. Glucose tolerance test (GTT) and insulin resistance test (ITT) were performed at 4 and 5 weeks of treatment, respectively. Metabolic analysis was performed at 5 weeks of treatment. At the end of the study, blood samples were taken through the retroorbital venous sinus of mice, fat depots (brown fat, inguinal subcutaneous fat, epididymal fat, perirenal fat and mesenteric fat depot) were dissected, weighed, and immediately frozen in liquid nitrogen and stored at −80 °C until required. Weight of fat depots are expressed in percentage (fat depots weight /bodyweight * 100%)."}, "p-TBK1, p-AMPKα, UCP1": {"test_system": "p-TBK1, p-AMPKα, UCP1", "assay": "Western blotting of TNF-α induced 3T3-L1 adipocytes", "format": "cell-based, Murine", "parameters": "p-TBK1 / p-AMPKα (western blotting, Figure 7j) / UCP1 (western blotting, Figure 7k): unit not given here", "details": "for p-TBK1: Figure 7i, replicates; for UCP1 (western blotting, Figure 7k) / p-AMPKα (western blotting, Figure 7j): 3T3-L1 adipocytes, replicates 1-3", "description": "The adipose tissue or 3T3-L1 adipocytes were homogenized by ultrasound in an ice‐cold RIPA lysis buffer containing 1% PMSF and centrifuged at 12,000 × g at 4°C for 15 min to collect the supernatant. The BCA protein assay kit (Beyotime, Shanghai, China) was used to detect the total protein concentration. Proteins (20-30 μg) of the sample were separated by 10% SDS-PAGE gel and transferred onto polyvinylidene difluoride (PVDF) membranes. Then the PVDF membranes were blocked in 5% skim milk powder in TBS containing 1% Tween-20 (TBST) for 2 h at room temperature and washed with TBST for 3 times. The membranes were incubated with the appropriate primary antibody, IKKε (1:1000 dilution), TBK1 (1:1000 dilution), p-TBK1 Ser172 (1:1000 dilution), p-AMPKα Thr172 (1:1000 dilution), UCP1 (1:1000 dilution), and GAPDH (1:1000 dilution) in the blocking buffer solution at 4 °C overnight. After washing, the membranes were incubated with horseradish peroxidase-conjugated secondary antibodies (in 5% skim milk powder) for 1 h at room temperature. Finally, the membranes were treated with enhanced chemiluminescence agents (Tanon, Shanghai, China) and the signals were monitored using the Tanon 5200 multi chemiluminescent imaging system (Tanon, Shanghai, China)."}, "db/db mice [2]": {"test_system": "db/db mice", "assay": "Serum CHO, TG, FFA, LDL-C, HDL-C and ADPN in the fasted state", "format": "in vivo", "details": "db/db mice; for ADPN (Figure 4j) / FFA (Figure 4g) / HDL-C (Figure 4i) / LDL-C (Figure 4h): serum, individual mice 1-6; for Serum CHO / Serum TG: fasted state, individual mice", "description": "The serum was collected by centrifugation at 3000 × g at 4 °C for 15 min and stored at −80 °C until analysis. TG, TC, LDL-C, HDL-C, and FFA were routinely tested on a Chemray 240 automatic biochemical analyzer (Chemray 240, Shenzhen, China). Serum levels of mouse adiponectin, interleukin6 (IL-6), tumor necrosis factor-α (TNF-α) were measured using commercial enzyme-linked immunosorbent assay (ELISA) kits (Nanjing Jiancheng Bioengineering Institute, Nanjing, China) and according to the manufacturer’s instructions. The levels of IL-6, TNF-α in 3T3-L1 adipocyte culture supernatant were also detected by ELISA."}, "[3]": {"assay": "In vitro dissolution studies: dynamic solubility in buffers and simulated biological fluids", "format": "physicochemical", "details": "CMC-Na, mean", "description": "Solubilities were determined by adding excess sample to 30 mL different mediums, such as HCl solution, acetate buffer, phosphate buffer, SGF, FaSSIF and FeSSIF. The configuration of various buffer solutions is shown in Supplementary Table 2. After being shaken at 400 rpm at 37 °C for 0.5, 1, 2, and 24 h, 0.3 mL of suspension was sampled and centrifuged at 14,000 rpm for 8 min to isolate mother liquor, and then analyzed by HPLC after dilution. All samples were analyzed in triplicate."}, "[4]": {"details": "vs vehicle, BJ 75 and 150 mg/kg, BBR 150 mg/kg, Ibu 150 mg/kg"}}, "note": "“And” between values parts separate entries of the source, which are not always exact repeats. Identical values can stand only once.", "data": [{"molecule": "CC(C)Cc1ccc(C(C)C(=O)[O-])cc1.COc1ccc2cc3[n+](cc2c1OC)CCc1cc2c(cc1-3)OCO2.O.O.O.O", "note": "[BJ, berberine-ibuprofen]", "values": [{"measurement": "Weekly fasting glucose levels of db/db mice (Figure 5a)", "setting": "db/db mice [1]; 2nd of 6 weekly columns (time not given)", "result": "13.5 and 10.8 and 19.3 and 10.6 and 16.2 and 16.8 and 22.9 and 16.4"}, {"measurement": "Weekly fasting glucose levels of db/db mice (Figure 5a)", "setting": "db/db mice [1]; 3rd of 6 weekly columns (time not given)", "result": "19.8 and 11.7 and 18.2 and 15.6 and 20.6 and 18.3"}, {"measurement": "Weekly fasting glucose levels of db/db mice (Figure 5a)", "setting": "db/db mice [1]; 4th of 6 weekly (time not given)", "result": "11.5 and 5.7 and 10.5 and 13.7 and 14.1 and 14.7"}, {"measurement": "Weekly fasting glucose levels of db/db mice (Figure 5a)", "setting": "db/db mice [1]; 5th of 6 weekly (time not given)", "result": "6.7 and 14.3 and 13.7 and 9.3 and 8.8 and 13.9"}, {"measurement": "Weekly fasting glucose levels of db/db mice (Figure 5a)", "setting": "db/db mice [1]; 6th of 6 weekly (time not given)", "result": "6.5 and 5.0 and 10.0 and 11.4 and 7.4 and 7.3 and 17.8"}, {"measurement": "Blood (serum) glucose levels compared with vehicle", "setting": "db/db mice [1]; db/db mice, BJ 75 and 150 mg/kg, BBR 150 mg/kg, Ibu 150 mg/kg", "result": "slowed the increase in glucose levels"}, {"measurement": "Fasting blood glucose level at the end of the treatment", "setting": "db/db mice [1]; 75 mg/kg", "result": "13.6 ± 3.0", "unit": "mmol/L"}, {"measurement": "Fasting blood glucose level at the end of the treatment", "setting": "db/db mice [1]; 150 mg/kg", "result": "9.4 ± 3.6", "unit": "mmol/L"}, {"measurement": "p-TBK1", "setting": "p-TBK1, p-AMPKα, UCP1; Tnfa + 3um BJ", "result": "0.5551 and 0.4207 and 0.3485"}, {"measurement": "p-TBK1", "setting": "p-TBK1, p-AMPKα, UCP1; Tnfa + 10um BJ", "result": "0.5649 and 0.4409 and 0.466"}, {"measurement": "Expression of p-AMPKα, UCP1, and p-TBK1", "setting": "p-TBK1, p-AMPKα, UCP1; TNF-α induced 3T3-L1 adipocytes, BJ treatment for 24 h", "result": "increased significantly"}, {"measurement": "UCP1 (western blotting, Figure 7k)", "setting": "p-TBK1, p-AMPKα, UCP1; Tnfa + 3um", "result": "0.6944 and 0.7423 and 0.5922"}, {"measurement": "p-AMPKα (western blotting, Figure 7j)", "setting": "p-TBK1, p-AMPKα, UCP1; Tnfa + 3um", "result": "0.6086 and 0.4894 and 0.5999"}, {"measurement": "UCP1 (western blotting, Figure 7k)", "setting": "p-TBK1, p-AMPKα, UCP1; Tnfa + 10um", "result": "1.271 and 1.387 and 0.9844"}, {"measurement": "p-AMPKα (western blotting, Figure 7j)", "setting": "p-TBK1, p-AMPKα, UCP1; Tnfa + 10um", "result": "0.7332 and 0.6589 and 0.63"}, {"measurement": "ADPN (Figure 4j)", "setting": "db/db mice [2]; BJ 75mg/kg", "result": "460 and 566.78 and 483.17 and 443.62 and 491.01 and 609.29"}, {"measurement": "FFA (Figure 4g)", "setting": "db/db mice [2]; BJ 75mg/kg", "result": "641.9 and 692.8 and 709.3 and 711.6 and 731.5 and 667"}, {"measurement": "HDL-C (Figure 4i)", "setting": "db/db mice [2]; BJ 75mg/kg", "result": "2.6 and 2.7 and 3.1 and 2.1 and 3 and 2.4"}, {"measurement": "LDL-C (Figure 4h)", "setting": "db/db mice [2]; BJ 75mg/kg", "result": "4.35 and 5.54 and 4.19 and 5.48 and 5.18 and 4.51"}, {"measurement": "ADPN (Figure 4j)", "setting": "db/db mice [2]; BJ 150mg/kg", "result": "563.3 and 624.62 and 712.07 and 705.63 and 665.38 and 609.46"}, {"measurement": "FFA (Figure 4g)", "setting": "db/db mice [2]; BJ 150mg/kg", "result": "697.7 and 666.2 and 614.5 and 627 and 678.9 and 614.6"}, {"measurement": "HDL-C (Figure 4i)", "setting": "db/db mice [2]; BJ 150mg/kg", "result": "3.5 and 2.9 and 2.4 and 2.8 and 2.7 and 3.1"}, {"measurement": "LDL-C (Figure 4h)", "setting": "db/db mice [2]; BJ 150mg/kg", "result": "3.35 and 4.57 and 3.32 and 3.26 and 3.43 and 3.59"}, {"measurement": "Serum CHO", "setting": "db/db mice [2]; 75 mg/kg", "result": "4.2 mmol/L and 4.3 mmol/L and 4.6 mmol/L and 3.4 mmol/L and 6.1 mmol/L and 5.3 mmol/L"}, {"measurement": "Serum TG", "setting": "db/db mice [2]; 75 mg/kg", "result": "0.92 mmol/L and 1.17 mmol/L and 1.79 mmol/L and 1.19 mmol/L and 1.62 mmol/L and 1.33 mmol/L"}, {"measurement": "Serum CHO", "setting": "db/db mice [2]; 150 mg/kg", "result": "3.2 mmol/L and 4.9 mmol/L and 4.5 mmol/L and 4.2 mmol/L and 3.7 mmol/L and 4.6 mmol/L"}, {"measurement": "Serum TG", "setting": "db/db mice [2]; 150 mg/kg", "result": "1.18 mmol/L and 1.01 mmol/L and 1.29 mmol/L and 1.1 mmol/L and 1.5 mmol/L"}, {"measurement": "Serum levels of CHO, TG, FFA and LDL-C", "setting": "db/db mice [2]; [4]", "result": "decreased"}, {"measurement": "Serum levels of HDL-C and adiponectin (ADPN)", "setting": "db/db mice [2]; [4]", "result": "increased"}, {"measurement": "BBR dissolved in CMC-Na (Figure S7a)", "setting": "[3]; time 0.5", "result": 0.8321}, {"measurement": "Ibu dissolved in CMC-Na (Figure S7b)", "setting": "[3]; time 0.5", "result": 0.4805}, {"measurement": "BBR dissolved in CMC-Na (Figure S7a)", "setting": "[3]; time 1", "result": 1.458}, {"measurement": "Ibu dissolved in CMC-Na (Figure S7b)", "setting": "[3]; time 1", "result": 0.5844}, {"measurement": "BBR dissolved in CMC-Na (Figure S7a)", "setting": "[3]; time 2", "result": 1.5642}, {"measurement": "Ibu dissolved in CMC-Na (Figure S7b)", "setting": "[3]; time 2", "result": 0.6306}, {"measurement": "BBR dissolved in CMC-Na (Figure S7a)", "setting": "[3]; time 24", "result": 1.6671}, {"measurement": "Ibu dissolved in CMC-Na (Figure S7b)", "setting": "[3]; time 24", "result": 0.6693}]}]}
